Experiment: Stability in an aqueous vehicle
Format: physicochemical
Settings: no test data printed

4(3)-(4-hydroxy-4-methylpentyl)-3-cyclohexene-1-carbonitrile [Example 1]
Stability in an aqueous vehicle: stable in an aqueous vehicle
